Target: T1, PBR/TSPO (18-kDa translocator protein) (Mus musculus, UniProt P50637)
T1 construct: native protein in kidney and testis membranes of Tspo+/+ mice
Assay: [3H]PK11195 saturation radioligand binding on tissue membranes; autoradiography; no binding in Tspo-/- mice

T1 sequence (P50637 whole entry): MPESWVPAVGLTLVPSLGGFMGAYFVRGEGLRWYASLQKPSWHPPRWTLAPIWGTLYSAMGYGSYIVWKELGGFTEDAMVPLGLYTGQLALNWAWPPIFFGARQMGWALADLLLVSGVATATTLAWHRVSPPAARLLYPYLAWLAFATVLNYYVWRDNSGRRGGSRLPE

- Kd: 12.9 nM
Compound: CCC(C)N(C)C(=O)c1cc2ccccc2c(-c2ccccc2Cl)n1 (stereo not shown) [PK11195, 1-(2-chlorophenyl)-N-methyl-(1-methylpropyl)-3 isoquinolinecarboxamide]

— PMC4263137, “Positron emission tomography and functional characterization of a complete PBR/TSPO knockout” (Nature Communications, 2014)
